System: mice
Conditions: mouse, in vivo

## CN1CC[C@]23c4c5ccc(O)c4O[C@H]2[C@@H](O)C=C[C@H]3[C@H]1C5 [morphine]
  period over which effect declines / returns to control levels: 5 h
  time of maximal effect: 1 h

Source: patent US7208466B1 (priority 1999, dated 2007)
